Experiments:
[1] = test system: colorectal cancer cell lines (HT-29, SW480); experiment: MTT cell viability, colorectal cancer cell lines; type: cell-based; conditions: Homo sapiens, 72 h, read-out: inhibition rate in the colon cancer cell lines
[2] = test system: paraganglioma (PGL) cell lines (PTJ64i, PTJ86i); experiment: MTT cell viability, paraganglioma cell lines; type: cell-based; conditions: Homo sapiens, 72 h, read-out: inhibition rate in the PGL cell lines
[3] = test system: eight human cancer cell lines (AsPC-1, BxPC-3, Capan-2, HT-29, SW480, PTJ64i, PTJ86i, A498); experiment: MTT cell viability, eight human cancer cell lines, single concentration; type: cell-based; conditions: 75 μM, 72 h
CPT1A = experiment: Expression of PPARα target gene CPT1A by RTqPCR; type: cell-based, human; conditions: HepG2, 48 h; test compounds 0.5 µM, GW7647 2 µM
hPPARα = molecular target: T1, hPPARα (Homo sapiens, UniProt Q07869); experiment: GAL-4 PPAR transactivation assay, agonist activity; conditions: 1, 2.5 and 5 μM; HepG2
T1 sequence (Q07869 239-466 limits assumed): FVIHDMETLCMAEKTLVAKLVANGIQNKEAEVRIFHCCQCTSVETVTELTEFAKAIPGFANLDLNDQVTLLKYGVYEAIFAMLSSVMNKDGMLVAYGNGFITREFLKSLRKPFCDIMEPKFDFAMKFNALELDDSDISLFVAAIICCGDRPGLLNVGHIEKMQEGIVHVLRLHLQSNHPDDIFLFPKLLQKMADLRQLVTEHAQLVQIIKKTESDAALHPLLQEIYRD

hPPARγ = molecular target: T2, hPPARγ (Homo sapiens, UniProt P37231); experiment: GAL-4 PPAR transactivation assay, agonist activity; conditions: 1, 2.5 and 5 μM; HepG2; data not shown
T2 sequence (P37231 238-503 limits assumed): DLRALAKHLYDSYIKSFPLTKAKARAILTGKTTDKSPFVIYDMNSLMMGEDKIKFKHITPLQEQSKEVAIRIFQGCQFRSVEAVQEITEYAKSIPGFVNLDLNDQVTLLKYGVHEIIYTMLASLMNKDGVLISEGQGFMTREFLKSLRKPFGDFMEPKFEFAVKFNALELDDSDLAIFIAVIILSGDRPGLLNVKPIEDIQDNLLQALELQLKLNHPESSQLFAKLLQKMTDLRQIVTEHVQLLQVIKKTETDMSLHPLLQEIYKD

| Structure (SMILES) | inhibition at 75 µM [1] [%] | inhibition at 75 µM [2] [%] | other results |
| --- | --- | --- | --- |
| CC(C)(Oc1ccc(CCOc2ccc(NC(=O)c3ccccc3)cc2)cc1)C(=O)NS(=O)(=O)c1ccccc1 [10e] | 52 to 98 | 84 to 98 |  |
| Cc1cccc(Nc2cc(Cl)nc(SCC(=O)O)n2)c1C [Wy-14,643] |  |  | effect on cell viability across the tumor cell lines tested [3]: did not affect cell viability |
| CC(C)(Sc1ccc(CCN(CCCCC2CCCCC2)C(=O)NC2CCCCC2)cc1)C(=O)O [GW7647] |  |  | CPT1A mRNA expression, compound alone (CPT1A): robustly stimulated CPT1A expression |
| CCC(=O)NC[C@H](Cc1ccc(OCCc2nc(-c3ccccc3)oc2C)cc1)N/C(C)=C\C(=O)c1ccc(C(F)(F)F)cc1 [GW6471, reference compound] |  | 85 to 92 | effect on cell viability across the tumor cell lines tested [3]: showed antiproliferative activities |
| CC(C)(Oc1ccc(CCOc2ccc(/N=N/c3ccccc3)cc2)cc1)C(=O)NS(=O)(=O)c1ccc(Cl)cc1 [3c] | 52 to 98 | 84 to 98 |  |
| CC(C)(Oc1ccc(CCOc2ccc(/N=N/c3ccccc3)cc2)cc1)C(=O)NS(=O)(=O)c1ccccc1 [2b] |  |  | agonist activity on PPARα (hPPARα): no detectable PPARα/γ activity; agonist activity on PPARγ (hPPARγ): no detectable PPARα/γ activity |
| CC(C)(Oc1ccc(CCOc2ccc(/N=N/c3ccccc3)cc2)cc1)C(=O)NS(=O)(=O)c1ccc([N+](=O)[O-])cc1 [3d] | 52 to 98 | 84 to 98 |  |

— article PMC7236056 (ACS Medicinal Chemistry Letters, 2020)
